Structures can show the parent of a compound that is named as a salt.
Tests used:
[1] = tested on: mice; details: mouse, in vivo, 30 mg/kg
[2] = tested on: Human Thrombocytes; experiment: Fibrinogen Binding to Human Thrombocytes (I125-fibrinogen, gel-filtered platelets); details: inhibition of I125-fibrinogen binding to gel-filtered human platelets, ADP, 20 minutes, ambient temperature; read-out: Fibrinogen Binding test IC50
Method in brief: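 Gel-filtered human platelets (from citrated PRP, pH 7.4 Tris/citrate/glucose buffer) incubated 20 min at ambient temperature with test compound, CaCl2, ADP and I125-fibrinogen; non-specific binding with 3 mg/ml cold fibrinogen. Platelets spun through silicone oil, bound fibrinogen gamma-counted; IC50 from a concentration series.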

[3] = tested on: thrombocyte aggregation in platelet-rich plasma; experiment: Antithrombotic effect: collagen-induced thrombocyte aggregation in platelet-rich plasma (Born and Cross); format: cell-based; details: human platelet-rich plasma, 10 minutes preincubation at 37° C., read-out: Inhibition of platelet aggregation EC50
Method in brief: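 Human platelet-rich plasma (citrated 1:10, 3.14%) incubated with compound 10 min at 37 °C, then aggregation triggered by minimal collagen giving irreversible response. Optical density change tracked photometrically (Born and Cross); EC50 determined graphically as 50% inhibition of optical density change.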

[4] = tested on: collagen-induced thrombocyte aggregation; experiment: Collagen-induced thrombocyte aggregation ex vivo after oral administration; format: in vivo; details: Rhesus monkeys, 1 mg/kg

SMILES	IC50 [2]	EC50 [3]	sedation [1]	duration of inhibition of collagen-induced thrombocyte aggregation ex vivo [4]	death of animals after intravenous administration ([1]; iv)
N=C(N)c1ccc(N2CCN(c3ccc(CCC(=O)O)cc3)S2(=O)=O)cc1 [1(66), 2-(4-amidino-phenyl)-5-[4-(2-carboxy-ethyl)-phenyl]-3,4-dihydro-2H,5H-1,2,5-thiadiazole-1,1-dioxide]	9.1 nM	50 nM	one animal was sedated		
Cc1nn(-c2ccc(C(=N)N)cc2)c(=O)n1-c1ccc(CCC(=O)O)cc1 [1(139), 2-(4-amidino-phenyl)-4-[4-(2-carboxy-ethyl)-phenyl]-5-methyl-4H-1,2,4-triazol-3-one]	6.8 nM	30 nM	one animal was sedated		
COC(=O)NC(=N)c1ccc(-n2nc(C)n(-c3ccc(CCC(=O)OCC(C)C)cc3)c2=O)cc1 [Example 5(18), 4-[4-(2-isobutyloxycarbonyl-ethyl)-phenyl]-2-(4-methoxycarbonylamidino-phenyl)-5-methyl-4H-1,2,4-triazol-3-one]	> 10000 nM	8060 nM		up to 8 hours	
Cc1cn(-c2ccc(C(=N)N)cc2)c(=O)n1-c1ccc(CCC(=O)O)cc1 [Example 1(138), 1-(4-amidino-phenyl)-3-[4-(2-carboxy-ethyl)-phenyl]-4-methyl-3H-imidazol-2-one]	21 nM	40 nM			did not lead to the death of any of the three animals tested
COC(=O)CCc1ccc(N2CCN(c3ccc(C(=N)N)cc3)C2=O)cc1 [2(6), 1-(4-amidino-phenyl)-3-[4-(2-methoxycarbonyl-ethyl)-phenyl]-imidazolidin-2-one hydrochloride]	240 nM	160 nM			
COC(=O)CCc1ccc(N2CCN(c3ccc(C(=N)N)cc3C)C2=O)cc1 [2(34), 1-(4-amidino-2-methyl-phenyl)-3-[4-(2-methoxycarbonyl-ethyl)-phenyl]-imidazolidin-2-one hydrochloride]	7400 nM	350 nM			
COC(=O)CCn1cc(-c2ccc(-c3ccc(C(=N)N)cc3)cc2)n(-c2ccccc2)c1=O [2(106), 4-(4'-amidino-4-biphenylyl)-1-(2-methoxycarbonyl-ethyl)-3-phenyl-3H-imidazol-2-one hydrochloride]	2700 nM	6600 nM			
COC(=O)CCc1ccc(N2CCN(c3ccc(C(C)N)cc3)C2=O)cc1 (stereo not shown) [Example 31, 1-[4-(1-Amino-ethyl)-phenyl]-3-[4-(2-methoxycarbonyl-ethyl)-phenyl]-imidazolidin-2-one hydrochloride]	250 nM	500 nM			
N=C(N)c1ccc(-n2ccn(-c3ccc(CCC(=O)O)cc3)c2=O)cc1 [1(67), 1-(4-amidino-phenyl)-3-[4-(2-carboxy-ethyl)-phenyl]-3H-imidazol-2-one]	30 nM	60 nM			

Continued, in another order:

IC50 [2]	EC50 [3]	SMILES	sedation [1]	duration of inhibition of collagen-induced thrombocyte aggregation ex vivo [4]	death of animals after intravenous administration ([1]; iv)
7.7 nM	50 nM	N=C(N)c1ccc(-n2ncn(-c3ccc(CCC(=O)O)cc3)c2=O)cc1 [1(145), 2-(4-amidino-phenyl)-4-[4-(2-carboxy-ethyl)-phenyl]-4H-1,2,4-triazol-3-one]			
31 nM	620 nM	N=C(N)c1ccc(-c2ccc(N3CCN(CCC(=O)O)S3(=O)=O)cc2)cc1 [1(21), 2-(4'-amidino-4-biphenylyl)-5-(2-carboxy-ethyl)-3,4-dihydro-2H,5H-1,2,5-thiadiazol-1,1-dioxide]			
190 nM	1700 nM	N=C(N)c1ccc(-c2ccc(-n3ccn(CCC(=O)O)c3=O)cc2)cc1 [1(3), 1-(4'-amidino-4-biphenylyl)-3-(2-carboxy-ethyl)-3H-imidazol-2-one]			
860 nM	60000 nM	N=C(N)c1ccc(N2CCN(CCc3ccc(C(=O)O)cc3)C2=O)cc1 [1(55), 1-(4-amidino-phenyl)-3-[2-(4-carboxyphenyl)-ethyl]-imidazolidin-2-one]			
8000 nM	27000 nM	COC(=O)CNCCN1CCN(c2ccc(C(=N)N)cc2)C1=O [2(75), 1-(4-amidino-phenyl)-3-(2-methoxycarbonylmethylamino-ethyl)-imidazolidin-2-one hydrochloride-acetate]			
> 100000 nM	20000 nM	COC(=O)CCc1ccc(N2CCN(c3ccc(C(=N)NC(=O)OC)cc3)C2=O)cc1 [5(1), 1-(4-methoxycarbonylamidino-phenyl)-3-[4-(2-methoxycarbonyl-ethyl)-phenyl]-imidazolidin-2-one]			

— US5276049A, “Cyclic urea derivatives, pharmaceutical compositions containing these compounds and methods of using the same” (Dr. Karl Thomae GmbH, priority 1991, dated 1994)
